Laboratory results: patent publication US20250026748A1, “N-(5-SUBSTITUTED-[(1,3,4-THIADIAZOLYL) OR (THIAZOLYL)])(SUBSTITUTED)CARBOXAMIDE COMPOUNDS AND USE THEREOF FOR INHIBITING HUMAN POLYMERASE THETA” (Repare Therapeutics Inc., priority 2021, published 2025)

Target: PolQ ATPase enzyme (1-894) (Homo sapiens (Human), UniProt O75417)
Assay: Polθ ATPase enzymatic assay (0.5 nM enzyme concentration), ADP-Glo
Format: biochemical
Conditions: average IC50; 0.5 nM PolQ ATPase enzyme (1-894)
Description: PolQ ATPase enzyme (1-894) at 0.5 nM is incubated with a 10-point concentration response of inhibitors for 15 min at rt in the following buffer: 50 mM Tris Cl pH 7.5, 10% glycerol, 5 mM DTT, 10 mM MgCl2, 0.1 mg/ml BSA. Following pre-incubation with inhibitors, DNA (Fork C) at 20 nM and ATP at 100 μM are added to start the reaction. Enzymatic reaction proceeds at rt for 180 min ATP consumption is measured using the ADP-Glo assay from Promega. Luminescence is read on the Envision and IC50 are determined using the variable slope 4-parameters equation.
Oligos are annealed by heating at 9500 for 5 min in the following buffer (10 mM Tris-HCl pH7.5, 50 mM NaCl, 1 mM EDTA) and cooled to rt. […]

Chain of PolQ ATPase enzyme (1-894) (O75417 1-894): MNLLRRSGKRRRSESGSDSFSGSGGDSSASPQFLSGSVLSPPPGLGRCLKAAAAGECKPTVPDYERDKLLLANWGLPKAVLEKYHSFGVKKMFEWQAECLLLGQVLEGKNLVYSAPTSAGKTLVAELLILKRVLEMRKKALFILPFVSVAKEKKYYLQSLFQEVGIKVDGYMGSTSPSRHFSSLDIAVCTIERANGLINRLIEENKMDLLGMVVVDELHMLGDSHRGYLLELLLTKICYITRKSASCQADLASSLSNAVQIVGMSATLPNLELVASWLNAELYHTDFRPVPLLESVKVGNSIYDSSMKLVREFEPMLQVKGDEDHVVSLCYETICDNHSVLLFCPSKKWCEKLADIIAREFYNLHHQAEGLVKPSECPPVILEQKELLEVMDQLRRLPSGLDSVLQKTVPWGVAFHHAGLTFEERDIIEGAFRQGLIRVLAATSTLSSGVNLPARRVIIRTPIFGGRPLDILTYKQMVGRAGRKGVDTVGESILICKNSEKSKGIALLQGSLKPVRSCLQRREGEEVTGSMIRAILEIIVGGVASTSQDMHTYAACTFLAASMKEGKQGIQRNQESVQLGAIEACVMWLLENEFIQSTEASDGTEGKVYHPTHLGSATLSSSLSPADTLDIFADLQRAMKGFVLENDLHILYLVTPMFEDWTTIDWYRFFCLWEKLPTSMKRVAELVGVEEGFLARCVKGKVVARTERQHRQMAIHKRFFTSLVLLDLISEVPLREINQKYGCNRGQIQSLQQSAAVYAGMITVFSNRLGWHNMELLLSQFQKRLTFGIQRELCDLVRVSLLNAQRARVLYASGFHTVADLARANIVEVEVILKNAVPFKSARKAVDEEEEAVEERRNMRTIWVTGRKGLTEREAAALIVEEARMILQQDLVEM

Row | Structure (SMILES) | IC50 [nM]
1 | COc1ccc(C(F)(F)F)cc1-c1cnccc1C(=O)Nc1nnc(C#Cc2cc(C)[nH]n2)s1 [Compound 27, 3-[2-methoxy-5-(trifluoromethyl)phenyl]-N-[5-[2-(5-methyl-1H-pyrazol-3-yl)ethynyl]-1,3,4-thiadiazol-2-yl]pyridine-4-carboxamide] | 0.26
2 | COc1cnc(Cl)cc1-c1cnccc1C(=O)Nc1nnc(C#Cc2cc(C)[nH]n2)s1 [Compound 28, 3-(2-chloro-5-methoxy-4-pyridyl)-N-[5-[2-(5-methyl-1H-pyrazol-3-yl)ethynyl]-1,3,4-thiadiazol-2-yl]pyridine-4-carboxamide] | 0.36
3 | Cc1cc(C#Cc2nnc(NC(=O)c3ccncc3-c3cc(F)ccc3Cl)s2)n[nH]1 [Compound 29] | 0.6
4 | COc1ccc(C(F)(F)F)cc1-c1cnccc1C(=O)Nc1nnc(C2CC2c2ccc(C#N)cc2)s1 (stereo not drawn) [Compound 30] | 0.76
5 | COc1cnc(Cl)cc1-c1cc(CC(=O)N(C)C)ccc1C(=O)Nc1nnc(C#CC2CC2)s1 [Compound 35, 2-(2-chloro-5-methoxypyridin-4-yl)-N-(5-(cyclopropylethynyl)-1,3,4-thiadiazol-2-yl)-4-(2-(dimethylamino)-2-oxoethyl)benzamide] | < 0.25
6 | COc1cnc(C(F)F)cc1-c1cn2ncnc2cc1C(=O)Nc1nnc(C#CC2CC2)s1 [Compound 36, N-(5-(cyclopropylethynyl)-1,3,4-thiadiazol-2-yl)-6-(2-(difluoromethyl)-5-methoxypyridin-4-yl)-[1,2,4]triazolo[1,5-a]pyridine-7-carboxamide] | 6.6
7 | COc1cnc(C(F)F)cc1-c1cn(C)c(=O)cc1C(=O)Nc1nnc(C#CC2CC2)s1 [Compound 37, N-(5-(cyclopropylethynyl)-1,3,4-thiadiazol-2-yl)-2′-(difluoromethyl)-5′-methoxy-1-methyl-6-oxo-1,6-dihydro-[3,4′-bipyridine]-4-carboxamide] | 3.3
8 | COc1ccc(C(F)F)cc1-c1cn(C)c(=O)cc1C(=O)Nc1nnc(C#CC2CC23CC3)s1 (stereo not drawn) [Compound 42] | 1.8
9 | Cc1ccc(Cl)cc1-c1cnccc1C(=O)Nc1nnc(C#CC2CC2)s1 [Compound 43] | < 0.25
10 | COc1cnc(C(F)F)cc1-c1cn(C)c(=O)cc1C(=O)Nc1nnc(C#CC2CC23CC3)s1 (stereo not drawn) [Compound 49] | 0.75
11 | O=C(Nc1nnc(C#CC2CC2)s1)c1cc2ncnn2cc1-c1cc(Cl)ncc1OC(F)F [Compound 50] | 2.4
12 | COc1ccc(C(F)(F)F)nc1-c1cn(CC(=O)N(C)C)c(=O)cc1C(=O)Nc1nnc(C#CC2CC2)s1 [Compound 51] | 2.1
13 | COc1cnc(C(F)(F)F)cc1-c1cn(C)c(=O)cc1C(=O)Nc1nnc(C#CC2CC2)s1 [Compound 59] | 1.89
14 | COc1ccc(C(F)(F)F)cc1-c1cn(C)c(=O)cc1C(=O)Nc1nnc(C#CC2CC23CC3)s1 (stereo not drawn) [Compound 60] | 1.1
15 | COc1cnc(Cl)cc1-c1cn2ncnc2cc1C(=O)Nc1nnc(C#CC2CC23CC3)s1 (stereo not drawn) [Compound 64] | 1.9
16 | COc1cnc(Cl)nc1-c1cnccc1C(=O)Nc1nnc(C#CC2CC2)s1 [Compound 68] | 1.6
17 | COc1cnc(C)cc1-c1cnccc1C(=O)Nc1nnc(C#CC2CC2)s1 [Compound 70] | 2.5
18 | COc1cnc(Cl)cc1-c1cc(C#N)ncc1C(=O)Nc1nnc(C#CC2CC2)s1 [Compound 72] | 0.62

More lines, now with the values ahead:

Row | IC50 [nM] | Structure (SMILES)
19 | 0.63 | COc1cnc(C(F)F)cc1-c1cnccc1C(=O)Nc1nnc(C#CC2CC2)s1 [Compound 31, N-(5-(cyclopropylethynyl)-1,3,4-thiadiazol-2-yl)-2′-(difluoromethyl)-5′-methoxy-[3,4′-bipyridine]-4-carboxamide]
20 | 0.66 | COc1cnc(Cl)cc1-c1cn(C)c(=O)cc1C(=O)Nc1nnc(C#CC2CC2)s1 [Compound 32, 2′-chloro-N-(5-(cyclopropylethynyl)-1,3,4-thiadiazol-2-yl)-5′-methoxy-1-methyl-6-oxo-1,6-dihydro-[3,4′-bipyridine]-4-carboxamide]
21 | < 0.25 | COc1ccc(C(F)(F)F)cc1-c1cc(CC(=O)N(C)C)ncc1C(=O)Nc1nnc(C#CC2CC2)s1 [Compound 33, N-(5-(cyclopropylethynyl)-1,3,4-thiadiazol-2-yl)-6-(2-(dimethylamino)-2-oxoethyl)-4-(2-methoxy-5-(trifluoromethyl)phenyl)nicotinamide]
22 | 0.29 | CN(C)C(=O)Cn1cc(-c2cc(C(F)(F)F)ccc2Cl)c(C(=O)Nc2nnc(C#CC3CC3)s2)cc1=O [Compound 34, 5-(2-chloro-5-(trifluoromethyl)phenyl)-N-(5-(cyclopropylethynyl)-1,3,4-thiadiazol-2-yl)-1-(2-(dimethylamino)-2-oxoethyl)-2-oxo-1,2-dihydropyridine-4-carboxamide]
23 | 0.27 | COc1cnc(Cl)cc1-c1cc(N2CCCC2=O)ccc1C(=O)Nc1nnc(C#CC2CC2)s1 [Compound 39]
24 | < 0.25 | COc1cnc(Cl)cc1-c1cc(C#N)ccc1C(=O)Nc1nnc(C#CC2CC2)s1 [Compound 40]
25 | < 0.25 | COc1ccc(C(F)(F)F)cc1-c1cc(Cl)ncc1C(=O)Nc1nnc(C#CC2CC2)s1 [Compound 41]
26 | 0.31 | O=C(Nc1nnc(C#CC2CC2)s1)c1ccncc1-c1cc(Cl)ncc1Cl [Compound 44]
27 | 2.2 | COc1cnc(Cl)cc1-c1cc(-c2cccnn2)ccc1C(=O)Nc1nnc(C#CC2CC2)s1 [Compound 45]
28 | 0.2 | COc1cnc(Cl)cc1-c1cc(-c2cc[nH]n2)ccc1C(=O)Nc1nnc(C#CC2CC2)s1 [Compound 46]
29 | 0.62 | O=C(Nc1nnc(C#CC2CC23CC3)s1)c1cc2ncnn2cc1-c1cc(Cl)ncc1OC(F)F (stereo not drawn) [Compound 47]
30 | 2.5 | COc1cnc(C(F)F)cc1-c1cn2ncnc2cc1C(=O)Nc1nnc(C#CC2CC23CC3)s1 (stereo not drawn) [Compound 48]
31 | 2.4 | CNC(=O)Cn1cc(-c2nc(C(F)(F)F)ccc2OC)c(C(=O)Nc2nnc(C#CC3CC3)s2)cc1=O [Compound 52]
32 | 0.31 | COc1cnc(Cl)cc1-c1cc(C#CC2(O)CCOCC2)ccc1C(=O)Nc1nnc(C#CC2CC2)s1 [Compound 53]
33 | < 0.25 | COc1cnc(Cl)cc1-c1cc(C#CC2(O)COC2)ccc1C(=O)Nc1nnc(C#CC2CC2)s1 [Compound 54]
34 | < 0.25 | COc1ccc(C(F)F)cc1-c1cnccc1C(=O)Nc1nnc(C#CC2CC23CC3)s1 (stereo not drawn) [Compound 55]
35 | < 0.25 | COc1ccc(C(F)F)cc1-c1cnccc1C(=O)Nc1nnc(C#CC2CC2)s1 [Compound 56]
36 | 0.91 | COc1cnc(C(F)(F)F)cc1-c1cn(C)c(=O)cc1C(=O)Nc1nnc(C#CC2CC23CC3)s1 (stereo not drawn) [Compound 58]
37 | < 0.25 | Cc1nnc(Cn2cc(-c3cc(C(F)(F)F)ccc3Cl)c(C(=O)Nc3nnc(C#CC4CC4)s3)cc2=O)o1 [Compound 61]
38 | 0.36 | COc1cnc(Cl)cc1-c1cnccc1C(=O)Nc1nnc(C2CC2c2ccc(OC(F)F)cc2)s1 (stereo not drawn) [Compound 62]
39 | 2.2 | O=C(Nc1nnc(C#CC2CC2)s1)c1cc(=O)n(Cc2nccs2)cc1-c1cc(C(F)(F)F)ccc1Cl [Compound 65]
40 | 0.6 | CN(C)C(=O)Cn1cc(-c2cc(F)ccc2Cl)c(C(=O)Nc2nnc(C#CC3CC3)s2)cc1=O [Compound 66]
41 | 0.28 | COc1cnc(C(F)(F)F)cc1-c1cnccc1C(=O)Nc1nnc(C#CC2CC23CC3)s1 (stereo not drawn) [Compound 69]
42 | 1.8 | COc1cnc(CF)cc1-c1cnccc1C(=O)Nc1nnc(C#CC2CC2)s1 [Compound 71]
